From ChEMBL document CHEMBL4630907 (2021)
The source made the active and inactive calls. The rule behind the calls is not given here.

Key:
[1] = biological target: D(4) dopamine receptor (Homo sapiens, UniProt P21917); assay: GPCRScan assay: inhibition of D4; parameters: radioligand conc. used [nm] 0.6 – 1.7, parental cells Stable HEK
[2] = biological target: GABA-A receptor; anion channel; assay: GPCRScan assay: inhibition of GABAA; format: protein-complex assay, Rattus norvegicus; parameters: radioligand conc. used [nm] 9.50 – 25.0, parental cells brain tissue
[3] = biological target: T1, Bromodomain-containing protein 2 (Homo sapiens, UniProt P25440); assay: TR-FRET assay (BRD2 BD1)
[4] = biological target: T1, Bromodomain-containing protein 2; assay: BET mutant TR-FRET assay (BRD2 BD2)
[5] = biological target: Bromodomain adjacent to zinc finger domain protein 2B (Homo sapiens, UniProt Q9UIF8); assay: BAZ2B DiscoverX BROMOscan
[6] = biological target: T2, Bromodomain-containing protein 3 (Homo sapiens, UniProt Q15059); assay: BRD3(1) DiscoverX BROMOscan
[7] = biological target: T2, Bromodomain-containing protein 3; assay: BRD3(2) DiscoverX BROMOscan
[8] = biological target: Chromatin remodeling regulator CECR2 (Homo sapiens, UniProt Q9BXF3); assay: CECR2 DiscoverX BROMOscan
[9] = biological target: T3, Protein polybromo-1 (Homo sapiens, UniProt Q86U86); assay: PBRM1(2) DiscoverX BROMOscan
T3 sequence (Q86U86 whole entry): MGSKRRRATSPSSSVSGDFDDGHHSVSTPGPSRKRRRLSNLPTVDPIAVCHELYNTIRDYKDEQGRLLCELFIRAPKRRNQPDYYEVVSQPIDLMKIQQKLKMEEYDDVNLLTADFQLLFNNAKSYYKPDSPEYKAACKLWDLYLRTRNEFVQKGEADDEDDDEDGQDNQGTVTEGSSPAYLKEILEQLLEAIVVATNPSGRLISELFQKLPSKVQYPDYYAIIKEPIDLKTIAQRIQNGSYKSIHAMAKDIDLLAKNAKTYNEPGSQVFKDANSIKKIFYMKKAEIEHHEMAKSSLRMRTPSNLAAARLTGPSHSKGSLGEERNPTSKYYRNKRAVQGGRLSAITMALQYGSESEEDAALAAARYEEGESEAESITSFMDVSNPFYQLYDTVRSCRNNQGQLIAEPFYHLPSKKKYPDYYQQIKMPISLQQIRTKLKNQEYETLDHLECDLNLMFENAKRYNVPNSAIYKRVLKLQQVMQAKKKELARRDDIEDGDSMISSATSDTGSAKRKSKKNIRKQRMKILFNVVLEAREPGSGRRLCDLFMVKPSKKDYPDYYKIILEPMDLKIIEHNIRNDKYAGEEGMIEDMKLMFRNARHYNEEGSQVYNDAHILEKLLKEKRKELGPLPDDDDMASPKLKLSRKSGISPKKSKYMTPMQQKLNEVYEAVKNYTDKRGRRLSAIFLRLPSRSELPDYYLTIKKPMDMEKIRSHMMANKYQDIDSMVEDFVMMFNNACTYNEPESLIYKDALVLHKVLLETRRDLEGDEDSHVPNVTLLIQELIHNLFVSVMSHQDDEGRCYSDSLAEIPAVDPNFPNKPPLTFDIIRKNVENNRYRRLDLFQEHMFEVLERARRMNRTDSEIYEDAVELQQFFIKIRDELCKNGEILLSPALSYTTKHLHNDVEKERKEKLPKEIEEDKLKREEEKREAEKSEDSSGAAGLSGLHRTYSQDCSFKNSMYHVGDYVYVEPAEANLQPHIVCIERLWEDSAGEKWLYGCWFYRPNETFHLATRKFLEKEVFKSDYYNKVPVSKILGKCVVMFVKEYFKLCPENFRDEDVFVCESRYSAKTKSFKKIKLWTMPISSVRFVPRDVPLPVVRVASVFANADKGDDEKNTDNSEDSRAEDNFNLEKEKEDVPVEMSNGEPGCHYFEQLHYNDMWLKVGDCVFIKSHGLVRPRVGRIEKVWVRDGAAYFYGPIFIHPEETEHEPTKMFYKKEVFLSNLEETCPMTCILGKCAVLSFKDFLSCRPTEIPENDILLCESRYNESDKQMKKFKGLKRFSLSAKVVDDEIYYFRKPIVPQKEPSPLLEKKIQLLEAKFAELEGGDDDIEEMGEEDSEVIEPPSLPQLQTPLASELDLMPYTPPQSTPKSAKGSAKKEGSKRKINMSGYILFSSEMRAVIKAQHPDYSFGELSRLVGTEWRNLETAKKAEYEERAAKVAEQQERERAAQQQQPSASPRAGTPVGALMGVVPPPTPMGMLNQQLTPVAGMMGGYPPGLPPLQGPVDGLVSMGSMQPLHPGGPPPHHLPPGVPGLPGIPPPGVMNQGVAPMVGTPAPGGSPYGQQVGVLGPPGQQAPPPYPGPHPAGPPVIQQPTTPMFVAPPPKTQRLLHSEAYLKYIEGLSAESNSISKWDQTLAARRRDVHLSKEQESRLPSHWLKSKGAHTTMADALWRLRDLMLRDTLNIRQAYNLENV

[10] = biological target: T3, Protein polybromo-1; assay: PBRM1(5) DiscoverX BROMOscan
[11] = biological target: Histone acetyltransferase KAT2B (Homo sapiens, UniProt Q92831); assay: PCAF DiscoverX BROMOscan
[12] = biological target: SWI/SNF-related matrix-associated actin-dependent regulator of chromatin subfamily A member 2 (Homo sapiens, UniProt P51531); assay: SMARCA2 DiscoverX BROMOscan
[13] = biological target: 3',5'-cyclic-AMP phosphodiesterase 4B (Homo sapiens, UniProt Q07343); assay: (§1) Cross screening panel
[14] = biological target: 5-hydroxytryptamine receptor 1B (Homo sapiens, UniProt P28222); assay: as §1
5-hydroxytryptamine receptor 1B, sequence (P28222 whole entry): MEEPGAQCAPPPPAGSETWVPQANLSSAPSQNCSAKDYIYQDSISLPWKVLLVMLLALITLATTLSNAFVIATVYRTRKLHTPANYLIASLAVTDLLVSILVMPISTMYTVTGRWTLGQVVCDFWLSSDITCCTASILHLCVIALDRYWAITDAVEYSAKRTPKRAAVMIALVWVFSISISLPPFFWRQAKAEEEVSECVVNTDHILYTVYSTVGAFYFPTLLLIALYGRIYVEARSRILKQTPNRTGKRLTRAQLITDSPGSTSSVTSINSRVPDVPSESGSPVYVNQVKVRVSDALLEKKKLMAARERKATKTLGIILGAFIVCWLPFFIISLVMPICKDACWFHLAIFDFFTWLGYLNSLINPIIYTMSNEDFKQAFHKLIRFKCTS

[15] = biological target: 5-hydroxytryptamine receptor 2C (Homo sapiens, UniProt P28335); assay: as §1
5-hydroxytryptamine receptor 2C, sequence (P28335 whole entry): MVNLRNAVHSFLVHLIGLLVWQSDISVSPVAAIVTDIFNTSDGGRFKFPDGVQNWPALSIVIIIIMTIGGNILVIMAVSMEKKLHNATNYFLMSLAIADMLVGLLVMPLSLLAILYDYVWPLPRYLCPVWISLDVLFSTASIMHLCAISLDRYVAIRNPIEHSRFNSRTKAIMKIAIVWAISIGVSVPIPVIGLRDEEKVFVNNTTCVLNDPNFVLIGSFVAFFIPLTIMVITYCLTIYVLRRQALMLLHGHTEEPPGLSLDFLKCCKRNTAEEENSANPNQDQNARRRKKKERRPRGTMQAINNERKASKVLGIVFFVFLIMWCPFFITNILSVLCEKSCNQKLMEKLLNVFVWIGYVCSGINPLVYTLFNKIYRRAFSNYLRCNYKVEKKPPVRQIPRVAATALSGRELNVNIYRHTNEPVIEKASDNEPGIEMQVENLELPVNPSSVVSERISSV

[16] = biological target: Acetylcholine receptor subunit alpha (Homo sapiens, UniProt P02708); assay: as §1
Acetylcholine receptor subunit alpha, sequence (P02708 whole entry): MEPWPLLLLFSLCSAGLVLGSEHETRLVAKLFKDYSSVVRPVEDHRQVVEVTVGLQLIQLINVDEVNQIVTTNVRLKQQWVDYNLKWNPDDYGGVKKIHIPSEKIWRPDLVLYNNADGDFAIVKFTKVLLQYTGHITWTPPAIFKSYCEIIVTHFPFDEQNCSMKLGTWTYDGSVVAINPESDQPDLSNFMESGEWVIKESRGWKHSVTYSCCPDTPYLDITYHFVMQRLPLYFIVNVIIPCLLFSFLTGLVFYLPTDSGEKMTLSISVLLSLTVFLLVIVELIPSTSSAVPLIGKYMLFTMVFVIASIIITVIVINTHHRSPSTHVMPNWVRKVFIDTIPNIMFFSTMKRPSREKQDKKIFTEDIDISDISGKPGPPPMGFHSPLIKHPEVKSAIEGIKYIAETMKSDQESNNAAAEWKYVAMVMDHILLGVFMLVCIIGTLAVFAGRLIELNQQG

[17] = biological target: Acetylcholinesterase (Homo sapiens, UniProt P22303); assay: as §1
[18] = biological target: Adenosine receptor A2a (Homo sapiens, UniProt P29274); assay: as §1
[19] = biological target: Alpha-1B adrenergic receptor (Homo sapiens, UniProt P35368); assay: as §1
[20] = biological target: Alpha-2C adrenergic receptor (Homo sapiens, UniProt P18825); assay: as §1
[21] = biological target: Amine oxidase [flavin-containing] B (Homo sapiens, UniProt P27338); assay: as §1
[22] = biological target: Cytochrome P450 3A4 (Homo sapiens, UniProt P08684); assay: as §1
[23] = biological target: D(1A) dopamine receptor (Homo sapiens, UniProt P21728); assay: as §1
[24] = biological target: T4, D(2) dopamine receptor (Homo sapiens, UniProt P14416); assay: as §1
T4 sequence (P14416 whole entry): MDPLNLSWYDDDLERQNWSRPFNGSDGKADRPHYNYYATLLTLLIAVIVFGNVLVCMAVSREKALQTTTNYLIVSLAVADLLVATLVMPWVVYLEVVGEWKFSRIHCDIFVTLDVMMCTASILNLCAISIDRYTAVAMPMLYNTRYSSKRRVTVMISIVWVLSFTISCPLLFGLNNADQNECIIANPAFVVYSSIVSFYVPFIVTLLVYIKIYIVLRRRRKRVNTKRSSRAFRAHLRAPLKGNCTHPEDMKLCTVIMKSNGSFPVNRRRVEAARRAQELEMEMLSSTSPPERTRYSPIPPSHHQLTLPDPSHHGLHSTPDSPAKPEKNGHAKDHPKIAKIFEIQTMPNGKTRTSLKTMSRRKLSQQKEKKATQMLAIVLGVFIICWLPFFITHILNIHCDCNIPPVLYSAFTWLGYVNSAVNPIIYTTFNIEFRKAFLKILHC

[25] = biological target: Glutamate receptor ionotropic, NMDA 2B (Homo sapiens, UniProt Q13224); assay: as §1
[26] = biological target: Kappa-type opioid receptor (Homo sapiens, UniProt P41145); assay: as §1
Kappa-type opioid receptor, sequence (P41145 whole entry): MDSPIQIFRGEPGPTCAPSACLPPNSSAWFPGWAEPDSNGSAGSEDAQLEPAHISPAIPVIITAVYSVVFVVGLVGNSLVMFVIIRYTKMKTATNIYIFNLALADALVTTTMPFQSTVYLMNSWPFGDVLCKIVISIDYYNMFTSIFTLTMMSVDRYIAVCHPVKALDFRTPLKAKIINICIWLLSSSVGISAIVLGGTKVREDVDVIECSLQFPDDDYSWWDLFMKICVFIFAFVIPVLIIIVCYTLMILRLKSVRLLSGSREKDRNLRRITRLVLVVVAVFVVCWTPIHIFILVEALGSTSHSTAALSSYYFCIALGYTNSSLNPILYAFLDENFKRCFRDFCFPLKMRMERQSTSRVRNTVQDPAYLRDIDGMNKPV

[27] = biological target: Mu-type opioid receptor (Homo sapiens, UniProt P35372); assay: as §1
[28] = biological target: Muscarinic acetylcholine receptor M1 (Homo sapiens, UniProt P11229); assay: as §1
[29] = biological target: Phosphatidylinositol 4,5-bisphosphate 3-kinase catalytic subunit gamma isoform (Homo sapiens, UniProt P48736); assay: as §1
[30] = biological target: Potassium voltage-gated channel subfamily A member 5 (Homo sapiens, UniProt P22460); assay: as §1
[31] = biological target: Prostaglandin G/H synthase 2 (Homo sapiens, UniProt P35354); assay: as §1
[32] = biological target: T5, Sodium-dependent noradrenaline transporter (Homo sapiens, UniProt P23975); assay: as §1
T5 sequence (P23975 whole entry): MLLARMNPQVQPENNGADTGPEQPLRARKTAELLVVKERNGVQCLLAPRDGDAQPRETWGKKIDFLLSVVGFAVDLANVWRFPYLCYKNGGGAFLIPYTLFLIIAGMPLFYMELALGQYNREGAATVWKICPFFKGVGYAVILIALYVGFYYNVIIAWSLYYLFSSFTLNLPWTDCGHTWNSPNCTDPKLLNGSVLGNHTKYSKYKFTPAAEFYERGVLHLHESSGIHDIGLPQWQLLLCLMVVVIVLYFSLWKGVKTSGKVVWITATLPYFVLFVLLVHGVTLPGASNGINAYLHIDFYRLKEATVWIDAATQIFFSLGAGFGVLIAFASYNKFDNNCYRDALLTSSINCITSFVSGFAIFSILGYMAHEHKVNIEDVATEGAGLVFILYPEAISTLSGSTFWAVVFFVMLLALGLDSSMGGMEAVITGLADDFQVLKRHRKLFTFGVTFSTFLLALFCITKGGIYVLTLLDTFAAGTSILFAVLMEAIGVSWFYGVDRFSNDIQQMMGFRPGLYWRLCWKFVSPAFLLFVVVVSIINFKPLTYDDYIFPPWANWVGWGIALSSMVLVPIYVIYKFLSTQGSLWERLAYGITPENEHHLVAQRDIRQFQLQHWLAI

[33] = biological target: Substance-P receptor (Homo sapiens, UniProt P25103); assay: as §1
[34] = biological target: Tyrosine-protein kinase Lck (Homo sapiens, UniProt P06239); assay: as §1
[35] = biological target: Vasopressin V1a receptor (Homo sapiens, UniProt P37288); assay: as §1
[36] = biological target: cGMP-inhibited 3',5'-cyclic phosphodiesterase 3A (Homo sapiens, UniProt Q14432); assay: as §1
[37] = as §1
[38] = biological target: 5-hydroxytryptamine receptor 1D (Homo sapiens) (UniProt P28221); conditions: Compound concentration 10.0 uM
[39] = biological target: 5-hydroxytryptamine receptor 2C (Homo sapiens) (UniProt P28335); conditions: Compound concentration 10.0 uM
5-hydroxytryptamine receptor 2C (Homo sapiens), sequence (P28335 whole entry): as the sequence (P28335 whole entry) above

[40] = biological target: T4, D(2) dopamine receptor; conditions: Compound concentration 10.0 uM
[41] = biological target: T5, Sodium-dependent noradrenaline transporter; conditions: Compound concentration 10.0 uM
[42] = biological target: Delta-type opioid receptor (Homo sapiens) (UniProt P41143); conditions: Compound concentration 10.0 uM
[43] = biological target: GABA-A receptor; anion channel (Rattus norvegicus) (UniProt O09028+P15431+P18506+P18508+P19969+P20236+P23574+P23576+P28471+P28473+P30191+P62813+P63079+P63138+Q91ZM7+Q9ES14); conditions: Compound concentration 10.0 uM
[44] = biological target: Histamine H1 receptor (Homo sapiens, UniProt P35367); conditions: Compound concentration 10.0 uM
[45] = biological target: Histamine H2 receptor (Homo sapiens) (UniProt P25021); conditions: Compound concentration 10.0 uM
[46] = biological target: Histamine H3 receptor (Homo sapiens) (UniProt Q9Y5N1); conditions: Compound concentration 10.0 uM
[47] = biological target: Histamine H4 receptor (Homo sapiens) (UniProt Q9H3N8); conditions: Compound concentration 10.0 uM
[48] = biological target: Alpha-1B adrenergic receptor (Homo sapiens) (UniProt P35368); conditions: Compound concentration 10.0 uM
[49] = biological target: Alpha-2A adrenergic receptor (Homo sapiens) (UniProt P08913); conditions: Compound concentration 10.0 uM
[50] = biological target: Beta-1 adrenergic receptor (Homo sapiens) (UniProt P08588); conditions: Compound concentration 10.0 uM
[51] = biological target: Muscarinic acetylcholine receptor M5 (Homo sapiens) (UniProt P08912); conditions: Compound concentration 10.0 uM
[52] = biological target: Beta-3 adrenergic receptor (Homo sapiens) (UniProt P13945); conditions: Compound concentration 10.0 uM
[53] = biological target: Alpha-1D adrenergic receptor (Homo sapiens) (UniProt P25100); conditions: Compound concentration 10.0 uM
[54] = biological target: Sigma intracellular receptor 2 (Homo sapiens) (UniProt Q5BJF2); conditions: Compound concentration 10.0 uM

D(4) dopamine receptor, sequence (P21917 whole entry): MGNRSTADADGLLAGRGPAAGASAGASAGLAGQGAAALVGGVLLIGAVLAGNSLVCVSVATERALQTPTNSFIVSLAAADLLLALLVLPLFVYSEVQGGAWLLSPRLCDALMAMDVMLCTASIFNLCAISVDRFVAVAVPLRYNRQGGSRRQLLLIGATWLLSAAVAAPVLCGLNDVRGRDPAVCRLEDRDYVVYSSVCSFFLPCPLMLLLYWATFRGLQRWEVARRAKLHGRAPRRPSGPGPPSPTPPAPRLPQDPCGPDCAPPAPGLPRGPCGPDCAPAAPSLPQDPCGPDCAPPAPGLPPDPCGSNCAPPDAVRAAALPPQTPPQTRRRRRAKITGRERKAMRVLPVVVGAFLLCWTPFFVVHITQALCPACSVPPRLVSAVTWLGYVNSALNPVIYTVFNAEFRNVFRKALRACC

COCc1nc2cnc3cc(-c4c(C)noc4C)c(OC[C@H]4CCNC4)cc3c2n1[C@H](C)c1ccccc1 [GSK778]
Ki ([1]; read-out: Ki): 0.857 µM | Ki ([1]; read-out: pKi (converted)): 0.813 µM | Ki [2]: 1.6 µM | pKi [2]: 5.81 | IC50 [3]: 0.075 µM (active) | pIC50 [4]: 5.5 | Kd [5]: 30 µM | Kd [6]: 0.005 µM | Kd [7]: 0.31 µM | Kd [8]: 30 µM | Kd [9]: 29 µM | Kd [10]: 30 µM | Kd [11]: 33 µM | Kd [12]: 30 µM | IC50 [13]: 39.8 µM | EC50 [14]: > 100 µM | IC50 [14]: > 100 µM | EC50 [15]: > 25.1 µM | IC50 [15]: > 25.1 µM | EC50 [16]: > 50.1 µM | IC50 [16]: 1 µM | IC50 [17]: 63.1 µM | EC50 [18]: > 100 µM | IC50 [19]: > 25.1 µM | EC50 [20]: > 100 µM | IC50 [21]: 79.4 µM | IC50 [22]: 6.31 µM | IC50 [23]: > 100 µM | EC50 [24]: > 100 µM | IC50 [24]: 3.16 µM | IC50 [25]: > 50.1 µM | EC50 [26]: > 100 µM | IC50 [26]: > 100 µM | EC50 [27]: > 100 µM | EC50 [28]: > 50.1 µM | IC50 [28]: > 50.1 µM | IC50 [29]: > 31.6 µM | IC50 [30]: > 50.1 µM | IC50 [31]: > 100 µM | IC50 [32]: 20 µM | IC50 [33]: > 25.1 µM | IC50 [34]: > 31.6 µM | IC50 [35]: > 50.1 µM | IC50 [36]: > 100 µM | pMEC [37]: < 4 | inhibition [38]: 14.8% | inhibition [39]: -0.02% | inhibition [40]: 27.7% | inhibition [41]: 34.5% | inhibition [42]: 38.5% | inhibition [43]: 52.7% | inhibition [44]: 0.33% | inhibition [45]: 12.3% | inhibition [46]: -5.03% | inhibition [47]: 29.3% | inhibition [48]: 4.2% | inhibition [49]: 9.95% | inhibition [50]: 4.82% | inhibition [51]: 24.6% | inhibition [52]: 10.5% | inhibition [53]: 17% | inhibition [54]: 23%
